In patent publication US20040171594A1, “Use of bis-acid(5-androsten-17-one-3beta-hydroxyl)diester for manufacture pharmaceuticals” (priority 2001, published 2004):
Marks after values point to notes of the source that are not given here.

Tests used:
[1] = tested on: arrhythmia of rats induced by Aconitine; experiment: Arrhythmia of rats induced by Aconitine; format: in vivo, SD rats
Description: Male SD rats, weighing (218.3±20.0) g, were anaesthetized with urethane 1.2 g/kg body weight by abdominal injection, continuously monitored by II lead electrocardiogram (ECG) by MS302 Biological Signal Record and Analysis System. After ten minutes of being administered drug or 0.5% CMC-Na through sublingual vein, rats were injected with Aconitine in external jugular vein at 2.5 μg/min speed, recorded the dose at appearance time of ventricular premature beat (VP), ventricular tachycardia (VT), ventricular fibrillation (VF) and cardiac arrest (CA), respectively. And t test was performed. […] The effect of compounds Ca Do E at 0.5 mg/kg dose were remarkably better than that of Prasterone and Arniodarone.

[2] = tested on: osteoporosis model of rats induced by Retinoic acid; experiment: Osteoporosis model of rats induced by Retinoic acid; format: in vivo, SD rats; conditions: Retinoic acid 70 mg/kg, specimen orally 30 days (dose not given), right thighbone, n=8
Source text: After continuously administering specimen for 30 days, killed rats and took right thighbone of rat.
Took same part tissue of right thighbone, routinely decalcified, enveloped with olefin, and dyed with HE. Observed with ordinary optics microscope, import all imagines into computer with A/D conversion of pickup camera, via dealing with image analysis software obtained index of guide line as follows: relative bone volume, indicating percentage that bone trabecula accounted for medullary cavity, 1.25×10×4 times; average width of bone trabecula, 1.25×10×10 times; amount of cell per area in bone trabecula, gathering same area image (640×480) of bone trabecula with image analysis software, calculating amount of bone cell in corresponding area, 1.25×10×40 times; Average length of bone cell lacuna, 1.25×10×40; Average width of bone cell lacuna, 1.25×10×40. The above five indexes of static state guide-line were all observed for ten eyeshots, calculating their average value.

[3] = tested on: cerebral ischemia-reperfusion injury of mice; experiment: Memory step-through test after cerebral ischemia-reperfusion injury; format: in vivo, NIH mice; conditions: 4.5 mg/kg intragastric once a day for 10 days, n=10
Description: After weighed, NIH mice were anaesthetized with Penbotarbital 60 mg/kg, then performed operation. Fixed at supine position, the skin in the middle of the deck was dissected about 7 mm. Separated common carotid artery of two sides of neck, surrounded with the thread of No “0”. Common carotid artery of two sides was chipped with artery clip for 2 minutes to induce cerebral ischemia. In the end of ischemia treatment, artery clip was loosed and blood perfusion was restored, rest for five minutes, repeated twice as that. After blocking blood flow of carotid, sutured incision. Recorded trail bloodletting, bloodletting quantity was no more than 10% of total blood quantity. After operation, […] were administered with proper physiological saline through intraperitoneal injection in order to supple capacity of blood. After pseudo operation group was anaesthetized, carotid of two sides was separated but blood flow was not blocked, without being bloodletting too.
In experiment appearance of body temperature lowering and righting reflex disappearing was as positive guide-line of ischemia, discarding those without typical guide line of ischemia. In the procedure of ischemia or after operation, some of animals would be dead. […] According to the dose of Table 7, animals were administered with medicine by intragastric intubation once a day, and continue administered drug for 10 days. After 10 days, memory test was performed.

[4] = tested on: acute renal failure of mice induced by endotoxin; experiment: Acute renal failure model induced by endotoxin; format: in vivo, NIH mice; conditions: drug 10 mg/kg i.p., endotoxin 0.06 g/kg, after five hours, n=10; for GSH-Px: mice kidney homogenate; for BUN / Cr: mice serum
Description: After five hours, blood of the mice was collected by removing eyes, assayed Blood Urea Nitrogen (BUN) and Creatinine (Cr) concentration of serum. One kidney of each […] was taken out and made 100 mL/L homogenate, assayed activity of Glutathione Peroxidase (GSH-Px) enzyme.

[5] = tested on: myocardium injury model of rats induced by ISO; experiment: Myocardium injury (myocardial ischemia) model of rats induced by ISO; format: in vivo, SD rats; conditions: drug 0.76 mg/kg, n=8; for Σ ST: rats, ISO s.c.
Description: SD rats were measured ECG by chest leads before experiment, abandoned those of abnormal or arrhythmia at T wave, ST sect. […] They were divided into four groups according to Table 4, eight rats in each group. As dose of Table 4, tested compounds or 0.5% CMC-Na solution with same volume were administered through duodenum for 30 minutes, rats were anaesthetized with aether. After ECG was recorded, Isoproterenol (ISO) was administered by subcutaneous injection from the back, recorded ECG again after 30 minutes. After specimen was intragastricly granted for 24 hours and 48 hours, every group was administered simples again and recorded ECG again in terms of the methods stated above. After 72 hours, bleeding from the ophthalmic venous plexus and separated blood serum through centrifugation. Killed the rats, scissor the tip of the heart to prepare 10% myocardial tissue homogenate with 4° C. physiological saline as standby.
Measured each rat's value of ST before first administering ISO. And after first, second and third subcutaneous injection for 30 minutes, calculated mv mean value of ΣST as guide line of myocardium injury and performed t test.
The changes of MDA LDH and CK in serum were measured with agent kits.
The changes of MDA, LDH and CK in serum and myocardial tissue homogenate were measured with agent kits.

[6] = tested on: thymus and spleen of mice; experiment: Indexes of thymus and spleen of mice injected with cyclophosphamide; format: in vivo, NIH mice; conditions: cyclophosphamide 60 mg/kg i.p., drug 10 mg/kg intragastric for 30 days, n=10
Description: Chose 90 healthy NIH mice, weighing (18˜22)g, equal amount of male and female. Every mouse was injected with cyclophos phamide (60 mg/kg, intraperitoneally). […] Administered specimen through intragastric intubation in terms of the dose in Table 8. Continuously administered orally specimen for 30 days, all mice fasted on the 30th day, but were supplied with water. On the 31th day, mice of every group were killed. Weighed their body, thymus and spleen, calculated index of thymus and spleen, compared the difference among each group.

[7] = tested on: arrhythmia of guinea pigs induced by Ouabain; experiment: Arrhythmia of guinea pigs induced by Ouabain; format: in vivo; conditions: n=8
Description: Chose 40 male guinea pigs, weighing (288.8±38.3) g, randomly divided into six groups, anaesthetized with urethane 1.2 g/kg by abdominal injection. Ten minutes after administered drug or 0.5% CMC-Na, the guinea pigs were injected Ouabain into external jugular vein at 3 μg/min speed, recorded ECG respectively, measured the dose at appearance time of VP, VT, VF and CA, and performed t test.

[8] = rats, drug 0.5 mg/kg sublingual vein 10 min before Aconitine 2.5 μg/min, n=10
[9] = myocardial tissue homogenate of rats with ISO myocardium injury
[10] = serum of rats with ISO myocardium injury, after 72 hours
[11] = drug 4.5 mg/kg 10 min before Ouabain 3 μg/min
[12] = drug 2.5 mg/kg 10 min before Ouabain 3 μg/min

| Compound | Amount of cell per area in bone trabecula [2] | Average width of bone trabecula [2] | Latency of dark cabin, Memory [3] | Latency of dark cabin, Study [3] | Number of error [3] | GSH-Px [4] | BUN [4] | Activity of CK [5, 9] | Activity of LDH [5, 9] | MDA [5, 9] | Σ ST ([5]; 30 min) | Σ ST ([5]; 24 h) | Σ ST ([5]; 48 h) | Σ ST ([5]; 72 h) | Activity of CK [5, 10] | Activity of LDH [5, 10] | MDA [5, 10] | Dose of Aconitine required to induce CA ([1]; {}) | Dose of Aconitine required to induce VF ([1]; {}) | Dose of Aconitine required to induce VP ([1]; {}) | also measured |
| --- | --- | --- | --- | --- | --- | --- | --- | --- | --- | --- | --- | --- | --- | --- | --- | --- | --- | --- | --- | --- | --- |
| C[C@]12CC[C@H](OC(=O)CC(=O)O[C@H]3CC[C@@]4(C)C(=CC[C@@H]5[C@@H]4CC[C@]4(C)C(=O)CC[C@@H]54)C3)CC1=CC[C@@H]1[C@@H]2CC[C@]2(C)C(=O)CC[C@@H]12 [Compound C, malonic acid-(5-androsten-17-one-3β-ol)-diester] | 19.50 ± 5.54 | 72.69 ± 10.38 μm | 58.1 ± 16.2 s | 24.4 ± 17.3 s | 2.5 ± 1.5 n | 29.8 ± 11.6 nU · L^−1 | 387.0 ± 40.2*** 10 mg · L^−1 | 186.55 ± 26.25 U/L | 201.33 ± 25.24 U/L | 121.67 ± 15.24 nmol/g | 0.64 ± 0.21 mv | 0.52 ± 0.11 mv | 0.50 ± 0.14 mv | 0.52 ± 0.12 mv | 262.50 ± 35.41 U/L | 270.13 ± 27.46 U/L | 28.29 ± 6.56 nmol/mL | – | – | – | Dose of Aconitine required to induce CA [1, 8]: 0.1865 ± 0.0317 mg/kg; Dose of Aconitine required to induce VF [1, 8]: 0.1528 ± 0.0393 mg/kg; Dose of Aconitine required to induce VP [1, 8]: 0.098 ± 0.0291 mg/kg; Dose of Aconitine required to induce VT [1, 8]: 0.1189 ± 0.0353 mg/kg |
| CC12CCC3C(CC=C4CC(OC(=O)CCC(=O)OC5CCC6(C)C(=CCC7C8CCC(=O)C8(C)CCC76)C5)CCC43C)C1CCC2=O (stereo not drawn) [Compound D, succinic acid-(5-androsten-17-one-3β-ol)-diester] | 20.70 ± 5.27 | 70.76 ± 8.56 μm | 67.4 ± 19.7 s | 37.3 ± 15.1 s | 1.2 ± 1.0 n | 38.4 ± 15.0 nU · L^−1 | 295.5 ± 36.0*** 10 mg · L^−1 | 270.41 ± 34.31 U/L | 292.27 ± 29.44 U/L | 78.43 ± 7.51 nmol/g | 0.42 ± 0.20 mv | 0.47 ± 0.13 mv | 0.42 ± 0.08 mv | 0.40 ± 0.10 mv | 229.27 ± 31.32 U/L | 218.55 ± 37.35 U/L | 18.15 ± 4.52 nmol/mL | 0.204 ± 0.028 mg/kg | 0.1864 ± 0.0302 mg/kg | 0.1224 ± 0.0205 mg/kg | Dose of Aconitine required to induce VT ([1]; {}): 0.1378 ± 0.0244 mg/kg; Relative bone volume [2]: 41.55 ± 4.38 %; Index of spleen [6]: 103.47 ± 13.40 mg/10 g body weight; Index of thymus [6]: 25.59 ± 3.70 mg/10 g body weight; Cr [4]: 29.31 ± 7.94*** 10 mg · L^−1 |
| C[C@]12CC[C@H](O)CC1=CC[C@@H]1[C@@H]2CC[C@]2(C)C(=O)CC[C@@H]12 [Parsterone, Prasterone, reference compound] | – | – | – | – | – | – | – | – | – | – | – | – | – | – | – | – | – | 0.1645 ± 0.0271 mg/kg | 0.1327 ± 0.0244 mg/kg | 0.0935 ± 0.019 mg/kg | Dose of Aconitine required to induce VT ([1]; {}): 0.11 ± 0.0161 mg/kg; Dose of Oua at appearance of CA [7, 11]: 0.1955 ± 0.033 mg/kg; Dose of Oua at appearance of VF [7, 11]: 0.1654 ± 0.0264 mg/kg; Dose of Oua at appearance of VP [7, 11]: 0.0893 ± 0.0155 mg/kg; Dose of Oua at appearance of VT [7, 11]: 0.1316 ± 0.0246 mg/kg |
| C=C1/C(=C\C=C2/CCC[C@]3(C)[C@@H]([C@H](C)CCCC(C)(C)O)CC[C@@H]23)C[C@@H](O)C[C@@H]1O [Rocaltrol, reference compound] | 19.27 ± 3.89 | 67.16 ± 13.11 μm | – | – | – | – | – | – | – | – | – | – | – | – | – | – | – | – | – | – | Relative bone volume [2]: 36.72 ± 7.82 % |
| propanediol-disulphonic acid-(5-androsten-17-one-3β-ol)-diester [Compound H] | 35.69 ± 3.70 | 60.84 ± 4.81 μm | 56.0 ± 17.2 s | 26.2 ± 15.2 s | 3.0 ± 1.5 n | 35.6 ± 10.7 nU · L^−1 | 366.0 ± 30.2*** 10 mg · L^−1 | 230.15 ± 53.46 U/L | – | 105.52 ± 14.64 nmol/g | 0.53 ± 0.11 mv | 0.50 ± 0.10 mv | 0.52 ± 0.04 mv | 0.51 ± 0.12 mv | 261.24 ± 24.27 U/L | 253.24 ± 31.55 U/L | 21.17 ± 3.36 nmol/mL | – | – | – | Cr [4]: 35.78 ± 7.26*** 10 mg · L^−1; Dose of Oua at appearance of CA [7, 12]: 0.2232 ± 0.0307 mg/kg; Dose of Oua at appearance of VF [7, 12]: 0.1981 ± 0.0415 mg/kg; Dose of Oua at appearance of VP [7, 12]: 0.116 ± 0.037 mg/kg; Dose of Oua at appearance of VT [7, 12]: 0.1402 ± 0.0356 mg/kg |
